Measured values as given in patent US20020177621A1, “Antifungal fragrance composition” (priority 2000, published 2002).
“And” between values parts separate entries of the source, which are not always exact repeats. Equal entries are not always repeated. “Also recorded” adds a separate entry of the source.

Columns and labels:
Type in all cases: cell-based
[1] = tested on: Aspergillus niger IFO 9455 (An-1); assay: Fragrant vapor antifungal activity (impregnated paper disc on cover of inverted agar plate); details: 72 hours at 27° C.; for IZ: Diameter of growth inhibition zone: 20 μl fragrance (or 40 μl of 50% ethanol solution) on disc, >85 = growth inhibited over entire plate; for Growth: Growth status outside the inhibition zone / SI: Diameter of spore formation inhibition zone: 20 μl fragrance on disc; for Growth: Growth status outside the inhibition zone: compared with control
Method: (§1) Physiological saline containing 0.05% Tween-80 was added to a slant on which the test organism grew well, and a spore suspension was produced at 1×10^6 CFU (Colony Forming Units)/ml in accordance with ordinary methods. Potato dextrose agar (PDA: Nissui Pharmaceutical) was used for the medium. To begin with, 10 ml of sterile PDA was pipetted into a Petri dish and after it solidified, another 6 ml of PDA containing 1% of the above described spore suspension was overlaid and solidified to prepare the test agar plate. For the fragrance sample, if the sample is in the form of liquid at ordinary temperatures, 20 μl of liquid was directly impregnated into a paper disc (Advantech, diameter: 8 mm, thick material), while a 50% by weight ethanol solution was prepared for crystals or powder, and 40 μl of that solution was then impregnated into the paper disc.
(§2) The test agar plate was placed inversely, and the paper disc impregnated with the fragrance sample was placed in the center of the cover of the agar plate, followed by incubating for 72 hours at 27° C. Evaluation was made based on the diameter (mm) of the mold growth inhibition zone. When mold growth was inhibited over the entire surface of the agar plate, the diameter of the growth inhibition zone was reported as >85 mm. At locations where mold grew outside the inhibition zone, the diameter of the spore formation inhibition zone and the degree of growth were recorded by comparing with a control. The molds used in the test are shown in Table 1, wherein these molds consist of mold species that are isolated at high frequencies from rooms and bath rooms.
(§3) The amount of blended fragrance added to the paper discs was 20 μl each, and only the diameter of the inhibition zone (mm) is indicated for the results.

[2] = tested on: Aureobasidium pullulans IFO 6353 (Ap-1); assay: as above; details: 72 hours at 27° C.; for IZ: Diameter of growth inhibition zone: 20 μl fragrance (or 40 μl of 50% ethanol solution) on disc, >85 = growth inhibited over entire plate; for Growth: Growth status outside the inhibition zone / SI: Diameter of spore formation inhibition zone: 20 μl fragrance on disc; for Growth: Growth status outside the inhibition zone: compared with control
Method: as §1, §2, §3

[3] = tested on: Cladosporium cladosporioides IFO 6348 (Cc-1); assay: as above; details: 72 hours at 27° C.; for IZ: Diameter of growth inhibition zone: 20 μl fragrance (or 40 μl of 50% ethanol solution) on disc, >85 = growth inhibited over entire plate; for Growth: Growth status outside the inhibition zone: 20 μl fragrance on disc, compared with control
Method: as §1, §2, §3

[4] = tested on: An-1 (Aspergillus niger); assay: Confirmation of synergistic action of two fragrances (vapor, paper disc); details: for IZ (diameter of growth inhibition zone) / Growth (growth status outside the inhibition zone) / SI (diameter of spore formation inhibition zone): 72 hours at 27° C.; for IZ (diameter of growth inhibition zone): sample amount on disc: citral 2 μl, benzaldehyde 10 μl, dimethyl tetrahydrobenzaldehyde 20 μl, geraniol 10 μl, octyl aldehyde 20 μl, 9-decen-1-ol 0.5 μl, trans-2-undecenal 3 μl, phenylacetaldehyde 5 μl, A + B = both amounts on one disc; for Growth (growth status outside the inhibition zone): sample amounts as in Table 3 (citral 2 μl, benzaldehyde 10 μl, dimethyl tetrahydrobenzaldehyde 20 μl, geraniol 10 μl, octyl aldehyde 20 μl, 9-decen-1-ol 0.5 μl, trans-2-undecenal 3 μl, phenylacetaldehyde 5 μl; A + B = both); for SI (diameter of spore formation inhibition zone): sample amounts as in Table 3 (citral 2 μl, benzaldehyde 10 μl, dimethyl tetrahydrobenzaldehyde 20 μl, geraniol 10 μl, octyl aldehyde 20 μl, trans-2-undecenal 3 μl, phenylacetaldehyde 5 μl; A + B = both); for Synergistic effect: second fragrance that shows synergistic action with the fragrance component / Additive effect: second fragrance that shows additive action with the fragrance component / Antagonistic effect: second fragrance that shows antagonistic action with the fragrance component: value = combination partner; for Synergistic effect: second fragrance that shows synergistic action with the fragrance component: combined IZ 20 mm or more larger than sum of single IZ; for Additive effect: second fragrance that shows additive action with the fragrance component: combined IZ intermediate; for Antagonistic effect: second fragrance that shows antagonistic action with the fragrance component: combined IZ 20 mm or more smaller than sum of single IZ
Method: An agar plate prepared according to the method of Example 1 was used while using An-1 (Aspergillus niger) for the test fungi. […] 10 μl of the ethanol containing the Table 3 prescribed amount of the fragrance was impregnated into a paper disc. The test agar plate was placed inversely, and the paper disc impregnated with each fragrance alone and a paper disc simultaneously impregnated with two types of fragrances were placed in the center of the cover, followed by incubating for 72 hours at 27° C. and measuring the diameters of the resulting growth inhibition zones.
The results obtained as in Example 2 with other combinations are shown in Tables 4 through 7 as combination examples of respective synergistic, additive and antagonistic actions for each fragrant chemical product (a). […] It should be noted that in order to make the table smaller, combinations that have already been listed once are not listed in other columns of the tables.

SMILES | IZ: Diameter of growth inhibition zone [1] [mm] | Growth: Growth status outside the inhibition zone [1] | IZ: Diameter of growth inhibition zone [2] [mm] | Growth: Growth status outside the inhibition zone [2] | IZ: Diameter of growth inhibition zone [3] [mm] | Growth: Growth status outside the inhibition zone [3] | IZ (diameter of growth inhibition zone) [4] [mm] | Growth (growth status outside the inhibition zone) [4] | SI (diameter of spore formation inhibition zone) [4] [mm] | Synergistic effect: second fragrance that shows synergistic action with the fragrance component [4] | Additive effect: second fragrance that shows additive action with the fragrance component [4] | SI: Diameter of spore formation inhibition zone [1] [mm] | SI: Diameter of spore formation inhibition zone [2] [mm] | Antagonistic effect: second fragrance that shows antagonistic action with the fragrance component [4]
CC1=CC(C)C(C=O)CC1 (stereo not shown) [Dimethyl tetrahydrobenzaldehyde, dimethyl tetrahydrobenzaldehyde] | 0 | weak | >85 | sparse | >85 | sparse | 0 | weak | >85 | Cumin aldehyde; also recorded: Geraniol | Thymol, and 1-Decanol | – | – | –
C=CCc1ccc(O)c(OC)c1 [Eugenol] | 40 | good | 40 | good | 70 | weak | – | – | – | – | Thymol | 60 | 60 | Phenylacetaldehyde,; also recorded: Anisaldehyde,
CCCCCCCCCCO [Example 1-Decanol, 1-Decanol] | 80 | weak | 40 | slight | 60 | weak | – | – | – | – | Thymol and 1-Nonanal and Methyl salicylate, and Phenylacetaldehyde, and Eugenol | – | – | –
C=CCCCCCCCCO [Example 9-Decen-1-ol, 9-Decen-1-ol] | >85 | none | 65 | weak | >85 | none | 0 | weak | – | 1-Decanol | Thymol | – | – | –
O=Cc1ccco1 [Furfural] | >85 | none | >85 | none | >85 | none | – | – | – | Citronellal; also recorded: hexenal, Octyl aldehyde,; also recorded: Trans-2-undecenal,; also recorded: Cumin aldehyde,; also recorded: Geraniol; also recorded: Citronellol; also recorded: Thymol | – | – | – | –
CC(C)=CCC/C(C)=C/CO [Geraniol] | 45 | good | 30 | good | 70 | weak | 30 | weak | 45 | 1-Nonanal | Thymol, | 65 | 45 | Citronellol,; also recorded: Eugenol
CCCCCCCC=O [Octyl aldehyde] | 10 | weak | >85 | none | >85 | none | 10 | weak | 35 | Cumin aldehyde | 1-Decanol and Thymol, and Anisaldehyde, and Geraniol, | >85 | – | Citronellol
O=Cc1ccccc1O [Salicylic aldehyde] | >85 | none | >85 | none | >85 | none | – | – | – | Cumin aldehyde and Thymol and 1-Decanol and Citronellol | – | – | – | –
CCC/C=C/C=O [Trans-2-hexenal] | >85 | none | >85 | none | >85 | none | – | – | – | – | Citral DMA, and 1-Nonanal, and 9-Decen-1-ol | – | – | –
CCCCCCCC/C=C/C=O [Trans-2-undecenal] | >85 | none | >85 | none | >85 | none | 30 | slight | >85 | Citral DMA; also recorded: Citral DEA; also recorded: Cumin aldehyde; also recorded: Geraniol; also recorded: Citronellol | – | – | – | Eugenol
